“Also recorded” adds a separate entry of the source.
Key:
[1] = target: T1, Protein tyrosine phosphatase 1B (human recombinant) (Homo sapiens, UniProt P18031); test: Determination of the inhibition mode (Lineweaver–Burk and Dixon plots); assay type: biochemical; conditions: p-NPP substrate; for Inhibition Type: Lineweaver–Burk and Dixon plots; for Ki: Dixon plot
T1 construct: purchased Biomol International LP, Plymouth Meeting, PA, USA
T1 sequence (P18031 1-435): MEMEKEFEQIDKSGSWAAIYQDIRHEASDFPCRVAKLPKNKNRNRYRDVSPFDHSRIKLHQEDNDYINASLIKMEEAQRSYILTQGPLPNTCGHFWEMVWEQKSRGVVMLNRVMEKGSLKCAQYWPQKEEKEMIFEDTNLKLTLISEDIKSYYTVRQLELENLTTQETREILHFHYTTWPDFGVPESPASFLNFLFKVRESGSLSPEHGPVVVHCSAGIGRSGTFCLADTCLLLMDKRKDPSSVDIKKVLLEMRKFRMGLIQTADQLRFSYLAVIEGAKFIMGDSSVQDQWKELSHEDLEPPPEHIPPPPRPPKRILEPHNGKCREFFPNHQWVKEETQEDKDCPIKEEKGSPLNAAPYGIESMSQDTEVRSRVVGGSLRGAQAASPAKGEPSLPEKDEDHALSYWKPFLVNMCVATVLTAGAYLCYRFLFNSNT
From the text: The Sigma plot program was used to analyze both the double reciprocal Lineweaver–Burk plot and the Dixon plot by plotting 1/v as a function of the inhibitor (I). […] Table 1 lists the Ki values for these active compounds.
Victor3 V 1420 Multilabel Plate Counter at an excitation and emission wavelength of 485 nm and 535 nm, […]
(§1) Protein tyrosine phosphatase 1B (human recombinant) was purchased from Biomol International LP, Plymouth Meeting, PA, USA, and the inhibitory activities of the tested samples were evaluated using the method as described in [31]. Briefly, 0.05−0.1 µg of PTP1B (BIOMOL International L.P., Plymouth Meeting, PA, USA) and 4 mM p-NPP in a buffer containing 1 mMdithiothreitol, 0.1 M NaCl, 1 mM EDTA, and 50 mM citrate (pH 6.0), with or without test compounds, were added as 100 µL of a final volume to each of the 96 wells. After the reaction mixture was incubated at 37 °C for 30 min, 10 M NaOH was added to quench the reaction. PTP1B enzyme activity was determined by the amount of produced p-nitrophenol at 405 nm. […]
contain the PTP1B enzyme.
Determination of the Inhibition Mode of Active Compounds
The Lineweaver–Burk plot and Dixon plot experiments were carried out in the presence and absence of the inhibitors with various concentrations of p-NPP as the substrate. The inhibition modes of the tested compounds were assessed on the basis of their inhibitory effects on the Km ([…]) and Vmax (maximum reaction velocity) of the enzyme, which were determined by the Lineweaver–Burk plot experiment. The Lineweaver–Burk plot is the double reciprocal plot of the enzyme reaction velocity ( V) versus the substrate ( p-NPP) concentration (1/ V versus 1/( p-NPP)).
(§2) Data are represented as means ± SD of at least three independent experiments performed in triplicated assays and determined by regression analysis. For statistical analysis of the data for single comparison, the significance between means was determined by the Student’s t test. Sigma Plot program version 11.0 was used for analysis of the kinetic data.

[2] = target: T1, Protein tyrosine phosphatase 1B (human recombinant); test: PTP1B inhibition assay (p-NPP substrate); assay type: biochemical; conditions: read-out: IC50 PTP1B inhibitory activity
From the text: PTP1B dephosphorylates IR and IRS in the insulin signaling pathway as a negative regulator. In the leptin signaling pathway, PTP1B presented the same manner of tyrosine Janus kinase 2. Thus, inhibition of PTP1B activity might improve the IR and IRS, leading to the enhancement of glucose uptake in adipocyte cells. […]
as §1
contain the PTP1B enzyme. […]
as §2

3T3-L1 adipocytes = test: Adipocyte-based measurement of 2-NBDG uptake; assay type: cell-based
From the text: DM is a metabolic ailment that is categorized by glucose intolerance and deviations of lipid and protein metabolism processes. Previously, 2-NBDG was used as a potential agent to evaluate the action of compounds as insulin mimickers. In our experiment, we examined the activity of the pimarane diterpenes 1–7 on 2-NBDG uptake in the 3T3-L1 adipocytes model. […] Among them, compounds 1, 3, 5, 6, and 7 theoretically stimulated glucose uptake by 1.45–1.51-, 1.56–1.68-, 1.55–1.66-, 1.72–1.83-, and 1.67–1.75-fold of inductions, respectively (Figure 2).
Figure 2 The action of pimarane diterpenes (1–7) on 2-NBDG uptake. Compounds concentrations were 5 and 10 µM; Insulin (100 nM); Control (DMSO). The glucose uptake effect was expressed as the mean ± standard deviation (SD) of three replicates. Statistical significance was accessed by Duncan’s multiple range tests (* p < 0.01; ** p < 0.05). […]
Cell Culture and Induction of 3T3-L1 Adipocytes
3T3-L1 cells were purchased from American Type Culture Collection (ATCC, Manassas, VA, USA) and grown in DMEM with 10% FCS. To induce differentiation, 3T3-L1 pre-adipocytes were cultured until confluence was reached (0 day), and the culture medium was replaced with a fresh induction medium containing 5 µg/mL insulin, 0.5 mM 3-isobutyl-1-methylxanthine (IBMX), and 1 µM dexamethasone (DEX) […]
in DMEM with 10% FBS for 2 days. […]
Adipocyte-Based Measurement of 2-NBDG Uptake
3T3-L1 adipocytes grown in black 96-well plates were incubated with each sample for 24 h at 37 °C in a 5% CO2 atmosphere. Subsequently, 250 µM 2-NBDG (dissolved in PBS with 1% BSA) was added to the cells and incubated for a further 30 min. After incubation, cells were washed two times with PBS to remove excess fluorescence in the wells. Then, fluorescence retained by the cells was measured using a PerkinElmer […]

PTP1B = test system: PTP1B; parameters: method as in PMID 23604820; conditions: very low IC50 values; cited from earlier work

C[C@H]1[C@H](C)CC[C@]2(C(=O)O)CC[C@]3(C)C(=CC[C@@H]4[C@@]5(C)CC[C@H](O)C(C)(C)[C@@H]5CC[C@]43C)[C@H]12 [Ursolic acid, reference compound]
Inhibition Type [1]: mixed-competitive inhibitor

C=CC1(C)CC(OC(=O)c2ccccc2)C2C(O)(C1=O)C(O)CC1C(C)(C)C(OC(C)=O)C(OC(C)=O)C(OC(=O)c3ccccc3)C12COC(C)=O (stereo not drawn) [Compound 2, siphonol D]
IC50 [2]: 24.7 ± 1.12 µM | 2-NBDG uptake, fold of induction (3T3-L1 adipocytes; range over 5 and 10 µM): 1.24–1.33 fold

C=C[C@]1(C)C=C2C(=O)C[C@H]3[C@@](C)(CCC[C@@]3(C)C(=O)O)[C@@H]2CC1 [7-oxo-ent-pimara-8(14),15-diene-19-oic acid]
PTP1B inhibition (in words) (PTP1B): significantly inhibited

C=CC1(C)C=C2CCC3C(C)(CO)CCCC3(C)C2CC1 (stereo not drawn) [ent-pimara-8(14),15-diene-19-ol]
PTP1B inhibition (in words) (PTP1B): significantly inhibited

C=CC1(C)CC(=O)C2C(O)(C1=O)C(O)CC1C(C)(C)C(OC(=O)c3ccccc3)C(OC(C)=O)C(OC(=O)c3ccccc3)C12C (stereo not drawn) [Compound 7, orthosiphol N]
Ki [1]: 5.5 ± 0.1 µM | Inhibition Type [1]: uncompetitive inhibition | IC50 [2]: 1.6 ± 0.17 µM | 2-NBDG uptake, fold of induction (3T3-L1 adipocytes; 5 μM): 1.67 ± 0.08 fold | 2-NBDG uptake, fold of induction (3T3-L1 adipocytes; range over 5 and 10 µM): 1.67–1.75 fold

insulin
2-NBDG uptake, fold of induction (3T3-L1 adipocytes; positive control at 100 nM): 1.55 ± 0.07 fold

C=CC1(C)CC(OC(=O)c2ccccc2)C2C(O)(C1=O)C(O)CC1C(C)(C)C(OC(C)=O)C(OC(C)=O)C(OC(=O)c3ccccc3)C12CO (stereo not drawn) [Compound 1, siphonol B]
Ki [1]: 52.4 ± 0.9 µM | Inhibition Type [1]: mixed-competitive inhibitor; also recorded: mixed-competitive inhibition | IC50 [2]: 8.18 ± 0.41 µM | 2-NBDG uptake, fold of induction (3T3-L1 adipocytes; range over 5 and 10 µM): 1.45–1.51 fold

C=C[C@@]1(C)C[C@@H](O)[C@H]2[C@](O)(C1=O)[C@H](O)C[C@H]1C(C)(C)[C@H](OC(C)=O)[C@H](OC(C)=O)[C@H](OC(=O)c3ccccc3)[C@@]12C [Compound 5, orthosiphol G]
Ki [1]: 23.9 ± 1.2 µM | Inhibition Type [1]: non-competitive inhibition | IC50 [2]: 3.82 ± 0.2 µM | 2-NBDG uptake, fold of induction (3T3-L1 adipocytes; 5 μM): 1.55 ± 0.02 fold | 2-NBDG uptake, fold of induction (3T3-L1 adipocytes; range over 5 and 10 µM): 1.55–1.66 fold

C=C[C@@]1(C)C[C@@H](OC(=O)c2ccccc2)[C@H]2[C@](O)(C1=O)[C@H](O)C[C@H]1C(C)(C)[C@H](OC(C)=O)[C@H](OC(C)=O)[C@H](OC(=O)c3ccccc3)[C@@]12C [Compound 4, orthosiphol F]
IC50 [2]: 27.6 ± 2.99 µM | 2-NBDG uptake, fold of induction (3T3-L1 adipocytes; range over 5 and 10 µM): 1.28–1.35 fold

C=C[C@]1(C)C=C2C(CC1)[C@]1(C)CCC[C@@](C)(C(=O)O)C1C[C@@H]2O (stereo partly drawn) [7β-hydroxy-ent-pimara-8(14),15-diene-19-oic acid]
PTP1B inhibition (in words) (PTP1B): significantly inhibited

C=CC1(C)CCC2C(O)(CCC3C(C)(CO)CCCC32C)C1 (stereo not drawn) [8α-hydroxy-ent-pimara-15-en-19-ol]
PTP1B inhibition (in words) (PTP1B): significantly inhibited

C=C[C@]1(C)C=C2CCC3[C@@](C)(CCC[C@@]3(C)C(=O)O)C2CC1 (stereo partly drawn) [ent-pimara-8(14),15-diene-19-oic acid]
PTP1B inhibition (in words) (PTP1B): significantly inhibited

C=C[C@@]1(C)CC(=O)[C@H]2[C@](O)(C1=O)[C@H](O)C[C@H]1C(C)(C)[C@H](OC(C)=O)[C@H](OC(C)=O)[C@H](OC(=O)c3ccccc3)[C@@]12C [Compound 6, orthosiphol I]
Ki [1]: 1.3 ± 0.6 µM | Inhibition Type [1]: competitive inhibition | IC50 [2]: 0.33 ± 0.07 µM | 2-NBDG uptake, fold of induction (3T3-L1 adipocytes; 5 μM): 1.72 ± 0.11 fold | 2-NBDG uptake, fold of induction (3T3-L1 adipocytes; range over 5 and 10 µM): 1.72–1.83 fold

C=C[C@@]1(C)C[C@@H](OC(=O)c2ccccc2)[C@H]2[C@](O)(C1=O)[C@H](OC(C)=O)C[C@H]1C(C)(C)[C@H](OC(C)=O)[C@H](O)[C@H](OC(=O)c3ccccc3)[C@@]12C [Compound 3, orthosiphol B]
Ki [1]: 75.6 ± 1.7 µM | Inhibition Type [1]: non-competitive inhibition | IC50 [2]: 9.84 ± 0.33 µM | 2-NBDG uptake, fold of induction (3T3-L1 adipocytes; 5 μM): 1.56 ± 0.09 fold | 2-NBDG uptake, fold of induction (3T3-L1 adipocytes; range over 5 and 10 µM): 1.56–1.68 fold

C=C1C[C@@]23CC[C@H]4[C@@](C)(CCC[C@@]4(C)C(=O)O)[C@@H]2CC[C@@H]1C3 [ent-kaur-16-en-19-oic-acid]
PTP1B inhibition (in words) (PTP1B): significantly inhibited

Source: PMC7017366, “Glucose Uptake Stimulatory and PTP1B Inhibitory Activities of Pimarane Diterpenes from Orthosiphon stamineus Benth” (Biomolecules, 2019)
